Measurements as given in BindingDB's records for doi:10.1124/mol.64.6.1295 (Glaxosmithkline, 2003).
Structures can show the parent of a compound that is named as a salt.

What was measured:
[1] = biological target: 5-hydroxytryptamine receptor 6 (Rattus norvegicus, UniProt P31388)
[2] = biological target: 5-hydroxytryptamine receptor 6 (Mus musculus, UniProt Q9R1C8)
[3] = biological target: 5-hydroxytryptamine receptor 6 (Homo sapiens, UniProt P50406)
Chain of 5-hydroxytryptamine receptor 6 (Homo sapiens, UniProt P50406) (P50406 whole entry): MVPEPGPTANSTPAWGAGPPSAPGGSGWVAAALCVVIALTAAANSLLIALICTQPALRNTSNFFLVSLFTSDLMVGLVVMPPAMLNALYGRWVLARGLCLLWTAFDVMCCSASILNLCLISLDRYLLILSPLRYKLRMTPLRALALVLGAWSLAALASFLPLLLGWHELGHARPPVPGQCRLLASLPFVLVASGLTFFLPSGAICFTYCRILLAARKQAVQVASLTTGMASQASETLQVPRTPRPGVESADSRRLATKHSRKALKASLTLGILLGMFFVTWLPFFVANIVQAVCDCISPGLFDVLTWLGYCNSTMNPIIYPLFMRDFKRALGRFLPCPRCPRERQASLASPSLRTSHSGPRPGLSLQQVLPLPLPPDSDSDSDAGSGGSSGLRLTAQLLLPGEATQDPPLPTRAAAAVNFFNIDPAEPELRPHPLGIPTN

Chain of 5-hydroxytryptamine receptor 6 (Rattus norvegicus, UniProt P31388) (P31388 whole entry): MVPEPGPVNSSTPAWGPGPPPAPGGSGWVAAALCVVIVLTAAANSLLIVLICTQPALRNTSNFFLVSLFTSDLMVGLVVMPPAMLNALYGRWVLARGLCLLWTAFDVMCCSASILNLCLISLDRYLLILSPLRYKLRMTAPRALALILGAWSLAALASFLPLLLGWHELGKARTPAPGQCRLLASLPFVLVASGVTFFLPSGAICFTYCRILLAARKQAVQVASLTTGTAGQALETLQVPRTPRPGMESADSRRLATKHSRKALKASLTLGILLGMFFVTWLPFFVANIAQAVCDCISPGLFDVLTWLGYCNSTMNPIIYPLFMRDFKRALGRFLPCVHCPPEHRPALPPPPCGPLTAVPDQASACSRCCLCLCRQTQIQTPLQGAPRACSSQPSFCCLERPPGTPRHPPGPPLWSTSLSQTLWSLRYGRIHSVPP
Chain of 5-hydroxytryptamine receptor 6 (Mus musculus, UniProt Q9R1C8) (Q9R1C8 whole entry): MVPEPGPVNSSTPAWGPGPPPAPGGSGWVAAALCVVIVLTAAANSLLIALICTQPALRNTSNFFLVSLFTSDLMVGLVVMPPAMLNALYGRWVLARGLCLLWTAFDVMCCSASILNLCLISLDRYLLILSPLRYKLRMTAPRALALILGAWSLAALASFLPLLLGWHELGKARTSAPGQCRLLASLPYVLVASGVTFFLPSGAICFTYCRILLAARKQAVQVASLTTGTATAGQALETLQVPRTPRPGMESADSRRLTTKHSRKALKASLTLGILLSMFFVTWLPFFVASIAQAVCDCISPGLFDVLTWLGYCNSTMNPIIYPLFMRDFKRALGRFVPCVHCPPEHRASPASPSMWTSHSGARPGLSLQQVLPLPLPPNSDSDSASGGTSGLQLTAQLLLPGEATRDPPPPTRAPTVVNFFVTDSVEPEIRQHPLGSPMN

SMILES | Ki [1] | Ki [2] | Ki [3]
COc1ccc(NS(=O)(=O)c2sc3ccc(Cl)cc3c2C)cc1N1CCNCC1 | 0.71 nM | 1.23 nM | –
CN(C)CCC=C1c2ccccc2CCc2ccccc21 | 182 nM | 89.1 nM | 141 nM
COc1ccc(NS(=O)(=O)c2ccc(Br)cc2)cc1N1CCN(C)CC1 | 4.79 nM | 22.9 nM | 2.82 nM
CN1CCN(C2=c3ccccc3=Nc3ccc(Cl)cc3N2)CC1 [6-chloro-10-(4-methylpiperazin-1-yl)-2,9-diazatricyclo[9.4.0.0^{3,8}]pentadeca-1,3(8),4,6,10,12,14-heptaene] | – | 6.46 nM | –
CN1CCN2c3ccccc3Cc3ccccc3C2C1 (stereo not drawn) [MIANSERIN HYDROCHLORIDE] | – | 3.24 nM | –
COc1ccc(S(=O)(=O)Nc2cc(Br)cc(F)c2Br)cc1N1CCNCC1 [N-(2,5-dibromo-3-fluorophenyl)-4-methoxy-3-(piperazin-1-yl)benzenesulfonamide] | 1.41 nM | 61.7 nM | –
CCN(CC)C(=O)C1C=C2c3cccc4[nH]cc(c34)CC2N(C)C1 (stereo not drawn) [NSC_3981] | 2.63 nM | 2.82 nM | –
CNc1cc(NS(=O)(=O)c2ccc(N)cc2)nc(NC)n1 [Ro-04-6790] | 28.8 nM | > 10000 nM | 51.3 nM
COc1ccc(NS(=O)(=O)c2sc3ccc(Cl)cc3c2C)cc1N1CCN(C)CC1 [SB-258510] | 0.76 nM | 1 nM | –
COc1ccc(NS(=O)(=O)c2ccc(I)cc2)cc1N1CCN(C)CC1 [SB-258585] | 2.29 nM | 11.2 nM | –
CNS(=O)(=O)Cc1ccc2[nH]cc(CCN(C)C)c2c1 [Sumax] | > 10000 nM | 5620 nM | > 10000 nM
NCCc1c[nH]c2ccc(O)cc12 [[3H]-5-HT] | 79.4 nM | 95.5 nM | –
CSc1ccc2c(c1)C(N1CCN(C)CC1)Cc1ccccc1S2 (stereo not drawn) [methanesulfonic acid;1-methyl-4-(3-methylsulfanyl-5,6-dihydrobenzo[b][1]benzothiepin-5-yl)piperazine] | – | 0.56 nM | –
COc1ccc2[nH]cc(CCN)c2c1 [tryptamine, 5-Methoxy] | 22.4 nM | – | –
